Source: publication PMC10060639, “Prediction and bioactivity of small-molecule antimicrobial peptides from Protaetia brevitarsis Lewis larvae” (Frontiers in Microbiology, 2023)
Values joined by “and” are separate entries in the source; they are usually repeats but may differ in a detail not shown here. Equal values may be shown once.

Experiments:
[1] = tested on: mouse RAW 264.7 macrophages; assay: cytotoxicity, MTT assay; type: cell-based; details: at 256 μg/mL, 24 h incubation, absorbance 570 nm, n = 3
Method: Followed the removing of the MTT, dimethyl sulfoxide (DMSO) (150 μL/well) was added and the absorbance was measured at 570 nm. Untreated cells were used as a control. […] The cytotoxicity detection was repeated in triplicate.

[2] = tested on: B. thuringiensis; assay: agar punch method, inhibition circle; type: cell-based, Bacillus thuringiensis; details: 6 mm hole, 55 μL of 1 mg/mL, NA, 37°C (Fig. S3C: 30°C), 16–18 h, mean ± SD, three replicates, + control given per plate group
Method: (§1) Staphylococcus aureus CMCC(B) 26003, B. thuringiensis, E. coli, and P. aeruginosa CMCC(B)10104 were cultured in NA medium and C. albicans CMCC(F) 98001 was cultured in SDA medium. They were incubated in a constant-temperature (bacteria: 37°C; fungi: 28°C) incubator for 16–20 h. Thereafter, single colonies were picked and incubated in 50 mL MHB at 160 rpm/min at the optimal growth temperature (bacteria: 37°C; fungi: 28°C). Microbial suspensions of 1 × 10^6 CFU/mL were then prepared ([Chen et al., 2016]).
(§2) 100 μL of 1 × 10^6 CFU/mL microbial suspension (E. coli, P. aeruginosa CMCC(B)10104, B. thuringiensis, S. aureus CMCC(B) 26003, or C. albicans CMCC(F) 98001) was evenly applied to dishes containing 20 mL NA (bacteria) or SDA (fungi). After the microbial solution solidified, six holes per dish were punched with a sterile pipette tip of 6 mm in diameter, with each hole spaced >20 mm apart and > 10 mm apart from the edge of the dish. […] Next, 55 μL of 1 mg/mL control/treatment was added to each hole and incubated in a constant-temperature (bacteria: 37°C; fungi: 28°C) incubator for 16–18 h ([Chen et al., 2016]; [Gong et al., 2022]), with three replicates for each treatment group. The diameter of the inhibition circle was measured using ImageJ software (National Institutes of Health, United States) in order to preliminarily determine whether the candidate peptides had inhibitory activity.

[3] = tested on: S. aureus CMCC(B) 26003; assay: dynamic antimicrobial analysis (OD600 growth over 10 h); type: cell-based, Staphylococcus aureus; details: 1/4× MIC, OD600 every hour for 10 h, 37°C, n = 3
Method: (§3) Therefore, the follow-up experiments involved these two bacteria, along with the three AMPs with the best antimicrobial effects (FD10, FD12, and FD15). The dynamic antimicrobial effects were analyzed by measuring the effects of the AMPs on bacterial growth over 10 h. First, 100 μL microbial solution (1.0 × 10^6 CFU/mL) was added to the wells of a 96-well culture plate, and then 100 μL AMP (at 1× and 1/4× MIC) was added and the mixtures were cultured at 37°C ([Mishra et al., 2013]; [Memariani et al., 2016]). 100 μL MHB with 100 μL microbial solution was used as the control group. The optical density at 600 nm (OD600) was measured every hour for 10 h using a microplate reader ([Hou et al., 2007]). The experiment was conducted in triplicate.

[4] = tested on: E. coli; assay: agar punch method, inhibition circle; type: cell-based, Escherichia coli; details: 6 mm hole, 55 μL of 1 mg/mL, NA, 37°C, 16–18 h, mean ± SD, three replicates, + control given per plate group
Method: as §1, §2

[5] = tested on: C. albicans CMCC(F) 98001; assay: agar punch method, inhibition circle; type: cell-based, Candida albicans; details: 6 mm hole, 55 μL of 1 mg/mL, SDA, 28°C, 16–18 h, mean ± SD, three replicates, + control given per plate group
Method: as §1, §2

[6] = tested on: E. coli; assay: dynamic antimicrobial analysis (OD600 growth over 10 h); type: cell-based, Escherichia coli; details: 1/4× MIC, OD600 every hour for 10 h, 37°C, n = 3
Method: as §3

[7] = tested on: S. aureus CMCC(B) 26003; assay: agar punch method, inhibition circle; type: cell-based, Staphylococcus aureus; details: 6 mm hole, 55 μL of 1 mg/mL, NA, 37°C, 16–18 h, mean ± SD, three replicates, + control given per plate group
Method: as §1, §2

[8] = tested on: P. aeruginosa CMCC(B)10104; assay: agar punch method, inhibition circle; type: cell-based, Pseudomonas aeruginosa; details: 6 mm hole, 55 μL of 1 mg/mL, NA, 37°C, 16–18 h, mean ± SD, three replicates, + control given per plate group, listed as +
Method: as §1, §2

CC1(C)S[C@@H]2[C@H](NC(=O)[C@H](N)c3ccccc3)C(=O)N2[C@H]1C(=O)O [ampicillin, reference compound]
survival rate of mouse RAW 264.7 macrophages [1]: 84.90% | Inhibition circle diameter (mm) B. thuringiensis [2]: 17.95 ± 0.36 mm and 13.99 ± 0.61 mm and 17.47 ± 0.19 mm and 15.97 ± 0.49 mm | time after which S. aureus CMCC(B) 26003 growth began [3]: around 2 h | Inhibition circle diameter (mm) E. coli [4]: 29.37 mm | Inhibition circle diameter (mm) E. coli ([4]; listed as +): 27.03 ± 0.47 mm and 27.84 ± 0.30 mm and 30.50 ± 0.21 mm and 29.37 ± 0.31 mm | Inhibition circle diameter (mm) C. albicans CMCC(F) 98001 [5]: 16.16 ± 0.51 mm and 17.74 ± 0.47 mm and 17.80 ± 0.25 mm and 19.69 ± 0.53 mm | time after which E. coli growth began [6]: > 1 h | Inhibition circle diameter (mm) S. aureus CMCC(B) 26003 [7]: 19.98 mm | Inhibition circle diameter (mm) S. aureus CMCC(B) 26003 ([7]; listed as +): 14.35 ± 0.49 mm and 15.58 ± 0.58 mm and 16.02 ± 0.34 mm and 19.98 ± 0.42 mm | Inhibition circle diameter (mm) P. aeruginosa CMCC(B)10104 [8]: 15.10 ± 0.43 mm and 16.52 ± 0.55 mm and 16.99 ± 0.39 mm and 14.48 ± 0.29 mm
